Reference: patent publication US6498125B2, “Pyridine ketones useful as herbicides” (Syngenta Participations AG, priority 1998, dated 2002)

These compounds were tested on Monocotyledonous and dicotyledonous test plants (assay: Example B2: post-emergence herbicidal action, 2 kg of AS/ha). Conditions: test plant Avena, 4- to 6-leaf stage, about 18 days, scale 1-9.
Assay type: in vivo
Parameters: key: 1 = complete damage, 9 = no effect
Description: Monocotyledonous and dicotyledonous test plants are grown in plastic pots with standard soil in a greenhouse and, in the 4- to 6-leaf stage, are sprayed with an aqueous suspension of the test substances of the formula 1, prepared from a 25% wettable powder (Example F3, b) according to WO 97134485) or with an emulsion of the test substances of the formula I, prepared from a 25% emulsion concentrate (Example F1, c) according to WO 97/34485), corresponding to a dosage of 2 kg of AS/ha (500 l of water/ha). The test plants are then grown further under optimum conditions in a greenhouse. After a test period of about 18 days, the test is evaluated with a nine-level scale of rating (1=complete damage, 9=no effect). Ratings of 1 to 4 (in particular 1 to 3) mean good to very good herbicidal action. In this test, the compounds of the formula I show strong herbicidal action.

Row | Compound | post-emergence action rating, Avena
1 | CCC(=O)OC1=C(C(=O)c2ccc(C(F)(F)F)nc2C)C(=O)C2CCC1C2 (centres unmarked) [Compound 1.404] | 2
2 | C=CC(=O)OC1=C(C(=O)c2ccc(C(F)(F)F)nc2C)C(=O)C2CCC1C2 (centres unmarked) [Compound 1.405] | 2
3 | CC=CC(=O)OC1=C(C(=O)c2ccc(C(F)(F)F)nc2C)C(=O)C2CCC1C2 (centres unmarked) [Compound 1.406] | 2
4 | CCOC(=O)OC1=C(C(=O)c2ccc(C(F)(F)F)nc2C)C(=O)C2CCC1C2 (centres unmarked) [Compound 1.409] | 2

Same assay, conditions: test plant Setaria, 4- to 6-leaf stage, about 18 days, scale 1-9

Row | Compound | post-emergence action rating, Setaria
5 | CCC(=O)OC1=C(C(=O)c2ccc(C(F)(F)F)nc2C)C(=O)C2CCC1C2 (centres unmarked) [Compound 1.404] | 2
6 | C=CC(=O)OC1=C(C(=O)c2ccc(C(F)(F)F)nc2C)C(=O)C2CCC1C2 (centres unmarked) [Compound 1.405] | 2
7 | CC=CC(=O)OC1=C(C(=O)c2ccc(C(F)(F)F)nc2C)C(=O)C2CCC1C2 (centres unmarked) [Compound 1.406] | 2
8 | CCOC(=O)OC1=C(C(=O)c2ccc(C(F)(F)F)nc2C)C(=O)C2CCC1C2 (centres unmarked) [Compound 1.409] | 1

Same assay, conditions: test plant Sinapis, 4- to 6-leaf stage, about 18 days, scale 1-9

Row | Compound | post-emergence action rating, Sinapis
9 | CCC(=O)OC1=C(C(=O)c2ccc(C(F)(F)F)nc2C)C(=O)C2CCC1C2 (centres unmarked) [Compound 1.404] | 1
10 | C=CC(=O)OC1=C(C(=O)c2ccc(C(F)(F)F)nc2C)C(=O)C2CCC1C2 (centres unmarked) [Compound 1.405] | 1
11 | CC=CC(=O)OC1=C(C(=O)c2ccc(C(F)(F)F)nc2C)C(=O)C2CCC1C2 (centres unmarked) [Compound 1.406] | 1
12 | CCOC(=O)OC1=C(C(=O)c2ccc(C(F)(F)F)nc2C)C(=O)C2CCC1C2 (centres unmarked) [Compound 1.409] | 1

Same assay, conditions: test plant Solanum, 4- to 6-leaf stage, about 18 days, scale 1-9

Row | Compound | post-emergence action rating, Solanum
13 | CCC(=O)OC1=C(C(=O)c2ccc(C(F)(F)F)nc2C)C(=O)C2CCC1C2 (centres unmarked) [Compound 1.404] | 1
14 | C=CC(=O)OC1=C(C(=O)c2ccc(C(F)(F)F)nc2C)C(=O)C2CCC1C2 (centres unmarked) [Compound 1.405] | 2
15 | CC=CC(=O)OC1=C(C(=O)c2ccc(C(F)(F)F)nc2C)C(=O)C2CCC1C2 (centres unmarked) [Compound 1.406] | 1
16 | CCOC(=O)OC1=C(C(=O)c2ccc(C(F)(F)F)nc2C)C(=O)C2CCC1C2 (centres unmarked) [Compound 1.409] | 1

Same assay, conditions: test plant Stellaria, 4- to 6-leaf stage, about 18 days, scale 1-9

Row | Compound | post-emergence action rating, Stellaria
17 | CCC(=O)OC1=C(C(=O)c2ccc(C(F)(F)F)nc2C)C(=O)C2CCC1C2 (centres unmarked) [Compound 1.404] | 2
18 | C=CC(=O)OC1=C(C(=O)c2ccc(C(F)(F)F)nc2C)C(=O)C2CCC1C2 (centres unmarked) [Compound 1.405] | 2
19 | CC=CC(=O)OC1=C(C(=O)c2ccc(C(F)(F)F)nc2C)C(=O)C2CCC1C2 (centres unmarked) [Compound 1.406] | 2
20 | CCOC(=O)OC1=C(C(=O)c2ccc(C(F)(F)F)nc2C)C(=O)C2CCC1C2 (centres unmarked) [Compound 1.409] | 2

These compounds were tested on Monocotyledonous and dicotyledonous test plants (assay: Example B1: pre-emergence herbicidal action, 2 kg of AS/ha). Conditions: test plant Avena, 3 weeks, scale 1-9.
Assay type: in vivo
Description: Monocotyledonous and dicotyledonous test plants are sown in standard soil in plastic pots. Immediately after sowing, the test substances are sprayed on (500 l of water/ha) as an aqueous suspension (prepared from a 25% wettable powder (Example F3, b) according to WO 97/34485) or emulsion (prepared from a 25% emulsion concentrate (Example F1, c)), corresponding to a dosage of 2 kg of AS/ha. The test plants are then grown under optimum conditions in a greenhouse. After a test period of 3 weeks, the test is evaluated with a nine-level scale of ratings (1=complete damage, 9=no effect). Ratings of 1 to 4 (in particular 1 to 3) mean good to very good herbicidal action.

Row | Compound | pre-emergence action rating, Avena
21 | CCC(=O)OC1=C(C(=O)c2ccc(C(F)(F)F)nc2C)C(=O)C2CCC1C2 (centres unmarked) [Compound 1.404] | 2
22 | C=CC(=O)OC1=C(C(=O)c2ccc(C(F)(F)F)nc2C)C(=O)C2CCC1C2 (centres unmarked) [Compound 1.405] | 2
23 | CC=CC(=O)OC1=C(C(=O)c2ccc(C(F)(F)F)nc2C)C(=O)C2CCC1C2 (centres unmarked) [Compound 1.406] | 2
24 | CCOC(=O)OC1=C(C(=O)c2ccc(C(F)(F)F)nc2C)C(=O)C2CCC1C2 (centres unmarked) [Compound 1.409] | 1

Same assay, conditions: test plant Cyperus, 3 weeks, scale 1-9

Row | Compound | pre-emergence action rating, Cyperus
25 | CCC(=O)OC1=C(C(=O)c2ccc(C(F)(F)F)nc2C)C(=O)C2CCC1C2 (centres unmarked) [Compound 1.404] | 1
26 | C=CC(=O)OC1=C(C(=O)c2ccc(C(F)(F)F)nc2C)C(=O)C2CCC1C2 (centres unmarked) [Compound 1.405] | 1
27 | CC=CC(=O)OC1=C(C(=O)c2ccc(C(F)(F)F)nc2C)C(=O)C2CCC1C2 (centres unmarked) [Compound 1.406] | 1
28 | CCOC(=O)OC1=C(C(=O)c2ccc(C(F)(F)F)nc2C)C(=O)C2CCC1C2 (centres unmarked) [Compound 1.409] | 1

Same assay, conditions: test plant Setaria, 3 weeks, scale 1-9

Row | Compound | pre-emergence action rating, Setaria
29 | CCC(=O)OC1=C(C(=O)c2ccc(C(F)(F)F)nc2C)C(=O)C2CCC1C2 (centres unmarked) [Compound 1.404] | 1
30 | C=CC(=O)OC1=C(C(=O)c2ccc(C(F)(F)F)nc2C)C(=O)C2CCC1C2 (centres unmarked) [Compound 1.405] | 1
31 | CC=CC(=O)OC1=C(C(=O)c2ccc(C(F)(F)F)nc2C)C(=O)C2CCC1C2 (centres unmarked) [Compound 1.406] | 1
32 | CCOC(=O)OC1=C(C(=O)c2ccc(C(F)(F)F)nc2C)C(=O)C2CCC1C2 (centres unmarked) [Compound 1.409] | 1

Same assay, conditions: test plant Sinapis, 3 weeks, scale 1-9

Row | Compound | pre-emergence action rating, Sinapis
33 | CCC(=O)OC1=C(C(=O)c2ccc(C(F)(F)F)nc2C)C(=O)C2CCC1C2 (centres unmarked) [Compound 1.404] | 2
34 | C=CC(=O)OC1=C(C(=O)c2ccc(C(F)(F)F)nc2C)C(=O)C2CCC1C2 (centres unmarked) [Compound 1.405] | 1
35 | CC=CC(=O)OC1=C(C(=O)c2ccc(C(F)(F)F)nc2C)C(=O)C2CCC1C2 (centres unmarked) [Compound 1.406] | 1
36 | CCOC(=O)OC1=C(C(=O)c2ccc(C(F)(F)F)nc2C)C(=O)C2CCC1C2 (centres unmarked) [Compound 1.409] | 1

Same assay, conditions: test plant Solanum, 3 weeks, scale 1-9

Row | Compound | pre-emergence action rating, Solanum
37 | CCC(=O)OC1=C(C(=O)c2ccc(C(F)(F)F)nc2C)C(=O)C2CCC1C2 (centres unmarked) [Compound 1.404] | 1
38 | C=CC(=O)OC1=C(C(=O)c2ccc(C(F)(F)F)nc2C)C(=O)C2CCC1C2 (centres unmarked) [Compound 1.405] | 1
39 | CC=CC(=O)OC1=C(C(=O)c2ccc(C(F)(F)F)nc2C)C(=O)C2CCC1C2 (centres unmarked) [Compound 1.406] | 1
40 | CCOC(=O)OC1=C(C(=O)c2ccc(C(F)(F)F)nc2C)C(=O)C2CCC1C2 (centres unmarked) [Compound 1.409] | 1

Same assay, conditions: test plant Stellaria, 3 weeks, scale 1-9

Row | Compound | pre-emergence action rating, Stellaria
41 | CCC(=O)OC1=C(C(=O)c2ccc(C(F)(F)F)nc2C)C(=O)C2CCC1C2 (centres unmarked) [Compound 1.404] | 2
42 | C=CC(=O)OC1=C(C(=O)c2ccc(C(F)(F)F)nc2C)C(=O)C2CCC1C2 (centres unmarked) [Compound 1.405] | 2
43 | CC=CC(=O)OC1=C(C(=O)c2ccc(C(F)(F)F)nc2C)C(=O)C2CCC1C2 (centres unmarked) [Compound 1.406] | 2
44 | CCOC(=O)OC1=C(C(=O)c2ccc(C(F)(F)F)nc2C)C(=O)C2CCC1C2 (centres unmarked) [Compound 1.409] | 1
